Ends that are not written are not given here.
Tests used:
[1] = system: C57BL/6J mice; test: Neuronal morphology in intact brain of C57BL/6J mice after intracranial AAV injection; format: in vivo, mouse; conditions: live multiphoton imaging, compared with control vector
Description: Intracortical injections and surgery were performed as described previously (Spires et al., 2005; Kuchibhotla et al., 2008; Meyer-Luehmann et al., 2008). Briefly, mice were anesthetized with ketamine (10 mg/kg) and xylazine (1 mg/kg) and placed in a stereotaxic apparatus. The surgical site was sterilized with betadyne and isopropyl alcohol, and a 2-3 mm incision was made in the scalp along the midline between the ears. Burr holes were drilled in the skull, 0.5 mm posterior from bregma, and 0.5 mm lateral to the midsagittal line. Using a Hamilton syringe, 3 μl of virus (titer, 4.2×10^12 viral genomes/ml) was injected 1.2 mm deep in somatosensory cortex at a rate of 0.25 μl/min. After one injection in each burr hole, the scalp was sutured, and the mouse recovered from anesthesia on a heating pad.
Images of GFP-filled neuronal processes and, in the case of APP/PS1 mice, amyloid pathology, and blood vessels were obtained using a Bio-Rad 1024ES multiphoton microscope (Bio-Rad), mounted on an Olympus Optical BX50WI upright microscope. […] A mode-locked titanium/sapphire laser (MaiTai; Spectra Physics) generated two-photon fluorescence with 800 nm excitation, and detectors containing three photomultiplier tubes (Hamamatsu) collected emitted light in the range of 380-480, 500-540, and 560-650 nm (Bacskai et al., 2003). […]

[2] = system: wild-type cultured neurons; test: CaNCA overexpression-induced abnormal morphology in wild-type cultured neurons; format: cell-based, mouse; conditions: for spine density: 15 DIV primary neurons transfected with wtCaN+GFP or CaNCA+GFP (DMSO or VIVIT in medium) or CaNCA+GFP+AKAP79; for GFP-positive neurons with local neuritic dystrophies: of total GFP-positive neurons
Description: FIGS. 10A to 10H show wild-type cultured neurons overexpressing a constitutively active CaN construct, CaNCA, develop abnormal morphology that is a phenocopy of the AD effect. […] Wild-type cultured neurons were infected with AAV-CaNwt or AAV-CaNCA with or without AAV-flag-AKAP79 for twenty-four hours, and then the cell extracts were assayed for luciferase activity. The symbol “*” indicates a p-value of less than 0.05; Data are mean±SD (n=3 experiments each). FIGS. 10B to 10G show images and quantification results of neurodegenerative morphologies observed in wild-type cultured neurons overexpressing CaNCA or a vector. Overexpression of CaNCA, but not CaNwt or vector control, into wild-type cultures induces dendritic dystrophies (FIGS. 10B and 10C; arrows in FIG. 10B indicated local swelling of dendrites), simplification of dendritic arborization (FIGS. 10D and 10E), and spine loss (FIGS. 10F and 10G). […] The symbol “*” indicates a p-value of less than 0.05; The symbol “*” in FIG. 10E indicates a p-value of less than 0.05 (CaNwt vs CaNCA). Data are mean±SD from three independent experiments, each in triplicate. […] Neurons were transfected at 10DIV and analyzed at 14DIV. A decreased spines density spines is observed when CaCA is overexpressed (15.2±1.1) compared with wtCaN (25.9±2.1). This effect was blocked by cotransfection with AKAP79 (25.6±1.0) or by the addition of VIVIT (SEQ ID NO: 7) in the medium (22±1.7). The symbol “**” indicates a p-value of less than 0.001 (ANOVA) and less than 0.05 (post-hoc Student's test). n≧15.
(§1) To examine whether CaN activation is sufficient to cause these morphologic changes, even in the absence of overexpressed APP or exogenously applied Aβ, it was sought to investigate whether the expression of a constitutively-active CaN (CaNCA) can favor morphological changes in wild-type cultured neurons. An AAV vector encoding an HA-tagged CaNCA (AAV-CaNCA) or wild-type CaN (AAV-CaNwt) or an AAV vector control was expressed in cortical cultures. […] Neurons with swollen dendrites were barely detectable in CaNwt-overexpressing cultures, but they were prominently detected in CaNCA-overexpressing cultures (FIG. 10B). […] The latter is similar to the number of dystrophic neurites found in cultures expressing β-galactosidase, an AAV-vector control. Dendritic complexity (FIGS. 10D and 10E) and mean spine density (FIGS. 10F and 100) were reduced in neurons overexpressing CaNCA but not in CaNwt- or vector-overexpressing neurons.

[3] = system: NFAT; test: NFAT luciferase reporter assay in cultured neurons; format: cell-based, mouse; conditions: neurons overexpressing CaNCA, with or without AAV-flag-AKAP79, 24 h
Description: Luciferase reporter assay. CaNwt, CaNCA, or NFAT-TA-Luc (Clontech) was subcloned into AAV serotype 2 vector. These plasmids (1 μg) were used […] at 3 DIV. After 24 h, the cells were harvested and luciferase activities were measured with a luminometer using a reagent kit (Luciferase Assay System with Reporter Lysis Buffer; Promega). The background luciferase activity was subtracted from all experiments.
as §1

[4] = system: Tg2576 neurons; test: APP overexpression-induced morphological abnormalities in Tg cultures at 21 DIV; format: cell-based, mouse
[5] = system: wild-type cultured neurons growing in TgCM; test: TgCM-induced morphological abnormalities in wild-type cultured neurons; format: cell-based, mouse
[6] = system: NFAT; conditions: in vitro; Macian 2005; cited from earlier work
[7] = system: calcineurin; conditions: Macian 2005; cited from earlier work
[8] = system: wild-type neurons; test: Baseline maturation of wild-type neurons; format: cell-based, mouse; conditions: VIVIT 2 μM or DMSO
Source text: The findings presented herein indicate that nuclear accumulation of NFATc4 occurs in neurons from Tg cultures and in human AD postmortem brain and that Aβ-containing CM from Tg culture is capable of inducing CaN-mediated NFATc4 nuclear localization in wild-type neurons. […] Thus, inhibition of CaN-NFAT interaction and subsequent NFAT nuclear accumulation by VIVIT (SEQ ID NO: 7) blocks TgCM or APP overexpression-induced morphological abnormalities in culture.

[9] = system: NFATc4; test: NFATc4 nuclear translocation (nucleus/cytoplasm ratio) induced by TgCM in wild-type cultured neurons; format: cell-based, mouse; conditions: wild-type neurons treated with TgCM for 24 h; VIVIT 2 μM
Description: Immunocytochemistry was performed as described previously in Wu et al. (2004). Briefly, after being treated under different experimental conditions, cells were fixed with 4% paraformaldehyde in PBS, pH 7.4, for 15 min and were then membrane permeabilized with 0.5% Triton X-100 in PBS for 5 min. After blocking with 3% bovine serum albumin at 37° C. for 1 h, cells were incubated with primary antibodies: anti-microtubule-associated protein 2 (MAP2) antibody (1: 200; Sigma), or anti-NFATc4 antibody (1:200; Santa Cruz Biotechnology), anti-HA antibody (1:200; Invitrogen), or anti-Flag antibody (1:200; Sigma), at 4° C. overnight. […] Nuclear NFATc4 staining was determined by overlap of NFATc4 staining with Hoechst nuclear staining. […]
Soluble plaque-associated bioactive molecules, possibly assemblies of Aβ, may be responsible for the “halo” effect of neuritic change and [Ca^2+]i alterations near plaques (Kuchibhotla et al., 2008; Meyer-Luehmann et al., 2008; Koffie et al., 2009). […] (NFATc4 and MAP2 images used for quantification of nucleus/cytoplasm ratio of NFATc4 are not shown.) To better characterize the specific role of Aβ oligomers in CaN-mediated NFATc4 activation, nondenaturing size exclusion chromatography (SEC) was used to isolate the various Aβ species from TgCM. […]

[10] = Tg cultures at 21 DIV, compared with wild type
[11] = wild-type neurons growing in TgCM, VIVIT 2 μM

Substance | spine density [1] | spine density [2] | GFP-positive neurons with local neuritic dystrophies [2] | NFAT-luciferase activity [3] | dendritic complexity / dendritic attenuation [4, 10] | mean spine density / spine loss [4, 10] | number of neurons with dendritic dystrophies [4, 10] | overall morphology during maturation ([4]; Tg neurons, treatment from 3 DIV (3D6, AKAP79) or VIVIT vs DMSO) | spine density ([5]; primary neurons treated with TgCM for 24 h, 1 μM FK506, 2 μM VIVIT or AKAP79 transfection (FIG. 8I)) | dendritic complexity (Sholl analysis) [5, 11] | dendritic spine density [5, 11] | number of neurons with dendritic dystrophies [5, 11] | NFAT dephosphorylation [6] | competition for calcineurin binding [7] | CaNCA overexpression-induced dendritic spine loss ([2]; wild-type cultured neurons overexpressing CaNCA) | number of neurons with dendritic dystrophies, dendritic processes and spine density [8] | nucleus/cytoplasm ratio of NFATc4 [9]
CaNCA: constitutively active truncated 45 kDa form of mouse CaN (amino acid residues 1-399), expressed from an AAV vector | significantly decreased | 15.2±1.1 | Approximately 15% | significantly increased |  |  |  |  |  |  |  |  |  |  |  |  | 
CaNwt: wild type mouse CaN expressed from an AAV vector | comparable with control vector-injected mice | 25.9±2.1 | 6% |  |  |  |  |  |  |  |  |  |  |  |  |  | 
VIVIT: cell-permeable VIVIT peptide that blocks the docking sites for CaN-NFAT interaction (catalog #480401; Calbiochem) (also: 11R cell-penetrating tag, position and linkage not given here) |  | 22±1.7 |  |  | prevented | prevented | prevented | dramatically improved morphology | restored | increased dendritic complexity | increased | reduced numbers of neurons with dendritic dystrophies | block NFAT dephosphorylation | compete with NFAT proteins for calcineurin binding | virtually eliminate | No significant changes | abolished

Reference: US20130195866A1, “METHODS TO INHIBIT NEURODEGENERATION” (priority 2010, published 2013)
